From PubChem BioAssay AID1963864 (Molecular Pharmacology Branch, DTP, NCI, 2024)

Test system: KRAS PDC multicell spheroid viability
Experiment: Anticancer human tumor 521955-158-R6-J3-PDC patient-derived pancreatic carcinoma cell line growth inhibition [KRAS2]
Conditions: for IC50: curve of first compound; for viability, T/C: stronger effect = lower value
Procedure, shortened: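 KRAS-mutant tumor cells were grown as spheroids with HUVEC endothelial cells and human MSCs as stroma. Targeted agents were tested alone and with KRAS pathway inhibitors. Doses started at or near clinical Cmax, or 10 microM, descending half-log.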

[1] = second compound 0.1 µM, first compound 0.0316 µM
[2] = second compound 0.1 µM, first compound 0.1 µM
[3] = second compound 0.316 µM, first compound 0.0316 µM
[4] = second compound 0.316 µM, first compound 0.1 µM
[5] = second compound 1 µM, first compound 0.0316 µM
[6] = second compound 1 µM, first compound 0.1 µM
[7] = second compound 3.16 µM, first compound 0.0316 µM
[8] = second compound 3.16 µM, first compound 0.1 µM
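Further: drug exposure lasted seven days.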
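Wherever viability, T/C is given: 100% = DMSO vehicle wells and lower means fewer viable cells.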

O=C(c1cc(Cc2n[nH]c(=O)c3ccccc23)ccc1F)N1CCN(C(=O)C2CC2)CC1 + C=CC(=O)N1CCN(c2nc(OCC3CCCN3C)nc3c2CCN(c2cccc4cccc(C)c24)C3)CC1CC#N
IC50 (second compound 0.0316 µM): > 10000 nM | IC50 (second compound 0.1 µM): > 10000 nM | IC50 (second compound 0.316 µM): > 10000 nM | IC50 (second compound 1 µM): > 10000 nM | IC50 (second compound 3.16 µM): < 31.6 nM | viability, T/C (second compound 0.0316 µM, first compound 0.0316 µM): 90% | viability, T/C (second compound 0.0316 µM, first compound 0.1 µM): 97% | viability, T/C (second compound 0.0316 µM, first compound 0.316 µM): 96.7% | viability, T/C (second compound 0.0316 µM, first compound 1 µM): 96.4% | viability, T/C (second compound 0.0316 µM, first compound 3.16 µM): 89.4% | viability, T/C (second compound 0.0316 µM, first compound 10 µM): 111% | viability, T/C [1]: 97.9% | viability, T/C [2]: 96.4% | viability, T/C (second compound 0.1 µM, first compound 0.316 µM): 97.5% | viability, T/C (second compound 0.1 µM, first compound 1 µM): 83.5% | viability, T/C (second compound 0.1 µM, first compound 3.16 µM): 87.5% | viability, T/C (second compound 0.1 µM, first compound 10 µM): 101% | viability, T/C [3]: 97.5% | viability, T/C [4]: 107% | viability, T/C (second compound 0.316 µM, first compound 0.316 µM): 103% | viability, T/C (second compound 0.316 µM, first compound 1 µM): 84.9% | viability, T/C (second compound 0.316 µM, first compound 3.16 µM): 87.3% | viability, T/C (second compound 0.316 µM, first compound 10 µM): 93.6% | viability, T/C [5]: 89.9% | viability, T/C [6]: 95.3% | viability, T/C (second compound 1 µM, first compound 0.316 µM): 79% | viability, T/C (second compound 1 µM, first compound 1 µM): 73.4% | viability, T/C (second compound 1 µM, first compound 3.16 µM): 86.2% | viability, T/C (second compound 1 µM, first compound 10 µM): 90.5% | viability, T/C [7]: 42.9% | viability, T/C [8]: 31.2% | viability, T/C (second compound 3.16 µM, first compound 0.316 µM): 24.1% | viability, T/C (second compound 3.16 µM, first compound 1 µM): 24.4% | viability, T/C (second compound 3.16 µM, first compound 3.16 µM): 39.9% | viability, T/C (second compound 3.16 µM, first compound 10 µM): 12.4%

CC(C)n1nc(-c2ccc3oc(N)nc3c2)c2c(N)ncnc21 + C=CC(=O)N1CCN(c2nc(=O)n(-c3c(C)ccnc3C(C)C)c3nc(-c4c(O)cccc4F)c(F)cc23)C(C)C1
IC50 (second compound 0.1 µM): > 100 nM | IC50 (second compound 0.316 µM): > 100 nM | IC50 (second compound 1 µM): > 100 nM | IC50 (second compound 3.16 µM): > 100 nM | IC50 (second compound 10 µM): 84.8 nM | viability, T/C (second compound 0.1 µM, first compound 0.000316 µM): 96.2% | viability, T/C (second compound 0.1 µM, first compound 0.001 µM): 90.9% | viability, T/C (second compound 0.1 µM, first compound 0.00316 µM): 75.6% | viability, T/C (second compound 0.1 µM, first compound 0.01 µM): 67.9% | viability, T/C [1]: 62.5% | viability, T/C [2]: 55.4% | viability, T/C (second compound 0.316 µM, first compound 0.000316 µM): 91.7% | viability, T/C (second compound 0.316 µM, first compound 0.001 µM): 97.7% | viability, T/C (second compound 0.316 µM, first compound 0.00316 µM): 92.8% | viability, T/C (second compound 0.316 µM, first compound 0.01 µM): 70.8% | viability, T/C [3]: 66.9% | viability, T/C [4]: 53.3% | viability, T/C (second compound 1 µM, first compound 0.000316 µM): 97.8% | viability, T/C (second compound 1 µM, first compound 0.001 µM): 90.6% | viability, T/C (second compound 1 µM, first compound 0.00316 µM): 77.3% | viability, T/C (second compound 1 µM, first compound 0.01 µM): 71.9% | viability, T/C [5]: 67.4% | viability, T/C [6]: 53.5% | viability, T/C (second compound 3.16 µM, first compound 0.000316 µM): 93% | viability, T/C (second compound 3.16 µM, first compound 0.001 µM): 93% | viability, T/C (second compound 3.16 µM, first compound 0.00316 µM): 81.4% | viability, T/C (second compound 3.16 µM, first compound 0.01 µM): 70.2% | viability, T/C [7]: 66.7% | viability, T/C [8]: 56.4% | viability, T/C (second compound 10 µM, first compound 0.000316 µM): 99% | viability, T/C (second compound 10 µM, first compound 0.001 µM): 89.9% | viability, T/C (second compound 10 µM, first compound 0.00316 µM): 74.6% | viability, T/C (second compound 10 µM, first compound 0.01 µM): 77.2% | viability, T/C (second compound 10 µM, first compound 0.0316 µM): 59.8% | viability, T/C (second compound 10 µM, first compound 0.1 µM): 47.5%
